34 molecules from ChEMBL document CHEMBL1949658, “3D-QSAR and 3D-QSSR models of negative allosteric modulators facilitate the design of a novel selective antagonist of human α4β2 neuronal nicotinic acetylcholine receptors” (Bioorg Med Chem Lett, 2012) can be followed below.

Assay [1] deals with Neuronal acetylcholine receptor; alpha4/beta2 (Homo sapiens, UniProt P17787+P43681). Description: Antagonist activity at human nAChR alpha4/beta2 receptor expressed in HEK ts201 cells assessed as calcium accumulation by fluorescence analysis. The assay is classed as functional, cell-based.
Neuronal acetylcholine receptor; alpha4/beta2, sequence (P17787 whole entry): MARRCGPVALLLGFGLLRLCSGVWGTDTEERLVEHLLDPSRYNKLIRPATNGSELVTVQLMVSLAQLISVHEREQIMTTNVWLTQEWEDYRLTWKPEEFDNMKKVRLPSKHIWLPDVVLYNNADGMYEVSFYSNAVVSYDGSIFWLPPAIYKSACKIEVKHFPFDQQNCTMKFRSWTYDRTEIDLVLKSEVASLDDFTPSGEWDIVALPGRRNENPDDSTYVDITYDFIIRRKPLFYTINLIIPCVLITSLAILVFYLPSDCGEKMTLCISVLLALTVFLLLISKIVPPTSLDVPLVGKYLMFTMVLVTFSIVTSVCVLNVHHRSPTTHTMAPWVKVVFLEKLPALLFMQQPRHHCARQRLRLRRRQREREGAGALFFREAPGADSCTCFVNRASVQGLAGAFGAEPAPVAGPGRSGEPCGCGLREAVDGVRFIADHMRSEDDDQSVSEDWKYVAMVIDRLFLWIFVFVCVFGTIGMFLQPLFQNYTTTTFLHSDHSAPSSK
Neuronal acetylcholine receptor; alpha4/beta2, sequence (P43681 whole entry): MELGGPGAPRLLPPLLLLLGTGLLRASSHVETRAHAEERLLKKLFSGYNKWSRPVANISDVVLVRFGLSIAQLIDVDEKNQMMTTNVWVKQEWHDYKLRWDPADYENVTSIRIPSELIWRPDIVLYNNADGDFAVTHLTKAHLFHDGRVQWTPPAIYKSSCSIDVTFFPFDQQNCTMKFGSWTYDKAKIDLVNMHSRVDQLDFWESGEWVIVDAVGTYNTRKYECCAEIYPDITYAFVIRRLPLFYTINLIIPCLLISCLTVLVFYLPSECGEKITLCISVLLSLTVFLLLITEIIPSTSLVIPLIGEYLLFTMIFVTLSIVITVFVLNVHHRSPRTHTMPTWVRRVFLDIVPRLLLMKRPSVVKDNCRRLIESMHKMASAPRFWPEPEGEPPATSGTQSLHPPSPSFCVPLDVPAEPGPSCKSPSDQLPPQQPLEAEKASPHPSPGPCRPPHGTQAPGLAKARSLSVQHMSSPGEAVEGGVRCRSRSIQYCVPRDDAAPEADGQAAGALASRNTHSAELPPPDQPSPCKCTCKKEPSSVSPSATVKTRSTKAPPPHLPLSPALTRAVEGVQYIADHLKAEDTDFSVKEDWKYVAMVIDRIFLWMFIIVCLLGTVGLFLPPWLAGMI
In assay [2] the target is Neuronal acetylcholine receptor; alpha3/beta4 (Homo sapiens, UniProt P30926+P32297). Description: Antagonist activity at human nAChR alpha3/beta4 receptor expressed in HEK ts201 cells assessed as calcium accumulation by fluorescence analysis. In kind it is functional, cell-based.
Neuronal acetylcholine receptor; alpha3/beta4, sequence (P30926 whole entry): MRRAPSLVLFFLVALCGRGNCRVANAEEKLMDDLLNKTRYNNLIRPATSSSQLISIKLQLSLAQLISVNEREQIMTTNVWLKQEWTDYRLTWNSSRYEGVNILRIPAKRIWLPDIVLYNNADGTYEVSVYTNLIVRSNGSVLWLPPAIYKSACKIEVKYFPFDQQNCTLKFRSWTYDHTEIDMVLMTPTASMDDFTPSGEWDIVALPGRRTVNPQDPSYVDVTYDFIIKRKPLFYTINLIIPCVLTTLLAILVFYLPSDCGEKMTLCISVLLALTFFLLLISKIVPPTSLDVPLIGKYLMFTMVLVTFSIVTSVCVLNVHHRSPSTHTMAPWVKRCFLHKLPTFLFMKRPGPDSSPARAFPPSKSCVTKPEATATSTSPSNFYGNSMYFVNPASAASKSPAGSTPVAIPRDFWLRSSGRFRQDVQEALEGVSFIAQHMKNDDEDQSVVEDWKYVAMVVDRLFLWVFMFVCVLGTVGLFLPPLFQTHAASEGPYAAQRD
Neuronal acetylcholine receptor; alpha3/beta4, sequence (P32297 whole entry): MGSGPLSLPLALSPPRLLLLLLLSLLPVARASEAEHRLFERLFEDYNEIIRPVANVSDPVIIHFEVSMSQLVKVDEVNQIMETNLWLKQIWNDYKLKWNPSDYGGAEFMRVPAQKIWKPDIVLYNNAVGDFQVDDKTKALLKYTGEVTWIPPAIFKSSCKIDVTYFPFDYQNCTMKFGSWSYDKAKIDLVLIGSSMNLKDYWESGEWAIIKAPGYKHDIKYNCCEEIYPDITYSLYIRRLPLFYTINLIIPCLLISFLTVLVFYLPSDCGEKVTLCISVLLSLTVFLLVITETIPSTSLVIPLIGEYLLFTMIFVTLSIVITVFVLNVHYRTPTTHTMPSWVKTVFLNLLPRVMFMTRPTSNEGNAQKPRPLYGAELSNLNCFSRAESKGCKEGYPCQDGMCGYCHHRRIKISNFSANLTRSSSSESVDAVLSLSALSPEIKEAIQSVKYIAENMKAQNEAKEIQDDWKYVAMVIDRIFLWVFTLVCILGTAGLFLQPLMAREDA
For a further assay, the species on record is Homo sapiens. The experiment in a line: Selectivity ratio of pIC50 for human nAChR alpha3/beta4 receptor to pIC50 for human nAChR alpha4/beta2 receptor.

Where only a bound is given, the exact number is not on record here.

For the molecule `O=C(OCC1CCCN(CCCc2ccccc2)C1)c1ccccc1Cl` (single isomer, unassigned), the figures for the IC50 in assay [1] (read-out: pIC50 (converted)) and in assay [2] (read-out: pIC50 (converted)) were 9.33 µM and 22.9 µM, respectively. For the same molecule, the Ratio pIC50 in the assay filed under Homo sapiens is 0.39.
For `CC1CC(=O)N(c2ccccc2C(=O)OCC2CCCN(CCc3c[nH]c4ccccc34)C2)C1=O` (centres undefined), the IC50 was 5.62 µM in assay [1] (read-out: pIC50 (converted)) and 74.1 µM in assay [2] (read-out: pIC50 (converted)). Further, the Ratio pIC50 in the assay filed under Homo sapiens was found to be 1.12.
With `CC1CC(=O)N(c2ccccc2C(=O)OCC2CCCN(CCCCCc3ccccc3)C2)C1=O` (centres undefined), the IC50 is 24.5 µM in assay [1] (read-out: pIC50 (converted)) and 4.17 µM in assay [2] (read-out: pIC50 (converted)). The Ratio pIC50 in the assay filed under Homo sapiens is -0.77.
Take `CC1(C)OC2C3CC(C2O1)N(CCCc1ccccc1)CC3OC(=O)c1ccccc1-c1ccccc1` (centres undefined): the IC50 in assay [1] (read-out: pIC50 (converted)) was 11.5 µM; in assay [2] (read-out: pIC50 (converted)), 13.8 µM. Besides, the Ratio pIC50 in the assay filed under Homo sapiens came out at 0.08.
For `O=C(NCc1ccccc1-c1ccccc1)C1CCCN(CCCc2ccccc2)C1` (single isomer, unassigned) the same measures were 16.6 µM, 14.5 µM and -0.06.
Taken in the same sequence, the figures for `CC1(C)CC(=O)N(c2ccccc2C(=O)OCC2CCCN(CCCc3ccccc3)C2)C1=O` (single isomer, unassigned) were 4.9 µM, 5.01 µM and 0.01.
As for `COc1ccccc1C(=O)OCC1CCCN(CCCc2ccccc2)C1` (single isomer, unassigned), the IC50 was 7.94 µM in assay [1] (read-out: pIC50 (converted)) and 12 µM in assay [2] (read-out: pIC50 (converted)). The Ratio pIC50 in the assay listed under Homo sapiens was 0.19.
As to `O=C(OCC1CCCN(CCCc2ccccc2)C1)c1ccccc1-n1cc(-c2ccccc2)nn1` (single isomer, unassigned), the IC50 in assay [1] (read-out: pIC50 (converted)) is 2.82 µM; in assay [2] (read-out: pIC50 (converted)), 4.27 µM. Moreover, the Ratio pIC50 in the assay filed under Homo sapiens was found to be 0.19.
For `O=C(OCC1CCCN(CCCc2ccccc2)C1)c1ccccc1N1C(=O)CC(Cc2ccc(Cl)cc2)C1=O` (centres undefined) the same measures were 10.7 µM, 14.5 µM and 0.14.
For `O=C(OCC1CCCN(CCCc2ccccc2)C1)c1ccccc1N1C(=O)c2ccccc2C1=O` (single isomer, unassigned) the same measures were 5.01 µM, 5.89 µM and 0.07.
Taken in the same sequence, the figures for `O=C(OCC1CCCN(CCCn2cc(-c3ccccc3)nn2)C1)c1ccccc1-c1ccccc1` (single isomer, unassigned) were 6.46 µM, 389 µM and 1.78.
With `C[C@H]1CC(=O)N(c2ccccc2C(=O)OC[C@H]2CCCN(CCCc3ccccc3)C2)C1=O`, the IC50 in assay [1] (read-out: pIC50 (converted)) was 10.5 µM; in assay [2] (read-out: pIC50 (converted)), 11 µM. Further, the Ratio pIC50 in the assay listed under Homo sapiens is 0.02.
For `O=C(OCC1CCCN(CCCCCOc2ccc(Cl)cc2)C1)c1ccccc1-c1ccccc1` (centres undefined) the same measures were 14.5 µM, 15.5 µM and 0.02.
For `C[C@@H]1CC(=O)N(c2ccccc2C(=O)OC[C@@H]2CCCN(CCCc3ccccc3)C2)C1=O` the same measures were 8.91 µM, 9.55 µM and 0.02.
For `CN1CCCC(COC(=O)c2ccccc2-c2ccccc2)C1` (single isomer, unassigned), the IC50 is 6.92 µM in assay [1] (read-out: pIC50 (converted)) and 4.79 µM in assay [2] (read-out: pIC50 (converted)). The Ratio pIC50 in the assay listed under Homo sapiens was -0.16.
For `COc1ccc(OCCN2CCCC(COC(=O)c3ccccc3N3C(=O)CC(C)C3=O)C2)cc1` (centres undefined) the same measures were 66.1 µM, 12 µM and -0.75.
For `CC1CC(=O)N(c2ccccc2C(=O)OC[C@@H]2C[C@H](C3CCCCC3)CN(CCCc3ccccc3)C2)C1=O` (some centres undefined) the same measures were 39.8 µM, 85.1 µM and 0.33.
In the case of `COc1ccc(OCCCCCN2CCCC(COC(=O)c3ccccc3N3C(=O)CC(C)C3=O)C2)cc1OC` (centres undefined), the results for the IC50 in assay [1] (read-out: pIC50 (converted)) and in assay [2] (read-out: pIC50 (converted)) were 8.32 µM and 2000 µM, respectively. The Ratio pIC50 in the assay filed under Homo sapiens worked out at 2.38.
Taken in the same sequence, the figures for `c1ccc(CCCN2CCCC(COCc3ccccc3-c3ccccc3)C2)cc1` (centres undefined) were 12.6 µM, 15.5 µM and 0.09.
Taken in the same sequence, the figures for `CC1CC(=O)N(c2ccccc2C(=O)OCC2CCCN(CCCC3CCCCC3)C2)C1=O` (centres undefined) were 14.5 µM, 10.7 µM and -0.14.
For `COc1ccc(CC2CC(=O)N(c3ccccc3C(=O)OCC3CCCN(CCCc4ccccc4)C3)C2=O)cc1` (centres undefined) the same measures were 38.9 µM, 28.8 µM and -0.13.
For the molecule `O=C(CCc1ccccc1)N1CCCC(CN(Cc2ccccc2-c2ccccc2)Cc2ccccc2-c2ccccc2)C1` (centres undefined), the IC50 in assay [1] (read-out: pIC50 (converted)) was 20.9 µM; in assay [2] (read-out: pIC50 (converted)), 40.7 µM. In the assay filed under Homo sapiens, the Ratio pIC50 turned out to be 0.29.
As to `O=C(OCC1CCCN(CCCc2ccccc2)C1)c1ccccc1C(F)(F)F` (single isomer, unassigned), the results for the IC50 in assay [1] (read-out: IC50) and in assay [2] (read-out: IC50) were 8 µM and 5.5 µM, respectively. The Ratio pIC50 in the assay listed under Homo sapiens is -0.16.
For the molecule `CC1CC(=O)N(c2ccccc2C(=O)OCC2CCCN(CCOc3ccc(Cl)c(Cl)c3)C2)C1=O` (centres undefined), the IC50 was 15.1 µM in assay [1] (read-out: pIC50 (converted)) and 17.4 µM in assay [2] (read-out: pIC50 (converted)). Moreover, the Ratio pIC50 in the assay filed under Homo sapiens turned out to be 0.06.
Taken in the same sequence, the figures for `CO[C@@H]1C[C@H](OC)C[C@@H](OCCN2CCCC(COC(=O)c3ccccc3N3C(=O)CC(C)C3=O)C2)C1` (some centres undefined) were 12.6 µM, 41.7 µM and 0.68.
`C[N+]1(C)CCCC(COC(=O)c2ccccc2-c2ccccc2)C1` (single isomer, unassigned): the IC50 in assay [1] (read-out: pIC50 (converted)) is 2.4 µM; in assay [2] (read-out: pIC50 (converted)) it was 6.46 µM. The Ratio pIC50 in the assay listed under Homo sapiens was found to be 0.43.
For `O=C(OCC1CCCN(CCCc2ccccc2)C1)c1ccc(-c2ccccc2)cc1` (centres undefined) the same measures were 6.31 µM, 18.6 µM and 0.47.
Taken in the same sequence, the figures for `[N-]=[N+]=NCCCN1CCCC(COC(=O)c2ccccc2-c2ccccc2)C1` (single isomer, unassigned) were 4.27 µM, 1.82 µM and -0.38.
On to `O=C(OCC1CCCN(CCCc2ccccc2)C1)c1ccccc1N1C(=O)CC(CCc2ccccc2)C1=O` (centres undefined), for which the IC50 is 5.13 µM in assay [1] (read-out: pIC50 (converted)) and 33.1 µM in assay [2] (read-out: pIC50 (converted)). Besides, the Ratio pIC50 in the assay filed under Homo sapiens stood at 0.81.
Consider `O=C(CCC1CCCNC1)c1ccccc1-c1ccccc1` (centres undefined), for which the IC50 in assay [1] (read-out: pIC50 (converted)) was 9.12 µM; in assay [2] (read-out: pIC50 (converted)), 6.61 µM. Moreover, the Ratio pIC50 in the assay listed under Homo sapiens is -0.14.
Take `O=C(OCC1CCCNC1)c1ccccc1-c1ccccc1` (single isomer, unassigned): the values for the IC50 in assay [1] (read-out: pIC50 (converted)) and in assay [2] (read-out: pIC50 (converted)) were 7.08 µM and 8.13 µM, respectively. In addition, in the assay listed under Homo sapiens, the Ratio pIC50 is 0.06.
Turning to `O=C(OCC1CCCN(C(=O)CCc2ccccc2)C1)c1ccccc1-c1ccccc1` (centres undefined), the IC50 was 5.6 µM in assay [1] (read-out: IC50), 6.03 µM in assay [1] (read-out: pIC50 (converted)), more than 100 µM in assay [2] (read-out: IC50) and 331 µM in assay [2] (read-out: pIC50 (converted)). Further, the Ratio pIC50 in the assay filed under Homo sapiens was determined as 1.74.
On to `O=C(OCc1ccccc1-c1ccccc1)C1CCCN(CCCc2ccccc2)C1` (single isomer, unassigned), for which the IC50 was 17.8 µM in assay [1] (read-out: pIC50 (converted)) and 10.2 µM in assay [2] (read-out: pIC50 (converted)). For the same molecule, the Ratio pIC50 in the assay filed under Homo sapiens was 0.24.
Turning to `CC1CC(=O)N(c2ccccc2C(=O)OCC2CCCN(CCCCOc3ccc(Cl)c(Cl)c3)C2)C1=O` (centres undefined), the IC50 was 12.3 µM in assay [1] (read-out: pIC50 (converted)) and 74.1 µM in assay [2] (read-out: pIC50 (converted)). Further, in the assay listed under Homo sapiens, the Ratio pIC50 stood at 0.78.
